Patent US7575764B2, “Compositions comprising hypsizygus ulmarius extract” (ELC Management LLC, priority 2005, dated 2009)

Columns and labels:
[1] = test system: LTB4-mediated neutrophil chemotaxis; test: Inhibition of neutrophil (PMN) chemotaxis toward LTB4, Boyden chamber; assay type: cell-based, human
Procedure: Three test samples, identical to powder samples 1, 2 and 3 in Example 1, were assayed for their ability to inhibit neutrophil chemotaxis toward Leukotriene B4. The assay is designed to assess the ability of a material to inhibit the migration of polymorphonuclear leukocytes (PMN) toward a known chemotactic agent, LTB4. […] The PMN rich fraction was removed and red blood cells (RBC) were lysed with hypotonic saline. The PMN were washed twice with Hank's Balanced Salt Solution (HBSS) and then resuspended in 5.0 ml HBSS with ions supplemented with 0.4% bovine serum albumin (Sigma). The concentration of cells was adjusted to 10×106 PMN/ml. Collected PMNs were greater than 95% pure and 98% viable as assessed by the trypan blue exclusion assay. The assay was performed using the Boyden chamber apparatus with blind well chambers fitted with 5 μm pore size filters (Millipore). The apparatus consists of two vertical chambers separated by a filter that contains pores of a size chosen such that the holes are large enough for the cells to actively crawl through them but not so large that the cells can physically fall through into the lower chamber. […] The chemoattractant used in the present experiment was 0.125 nM LTB4. Following incubation at 37° C. for 90 min., under a humidified atmosphere with 5% CO2, the filters were fixed with propanol and stained with haematoxylin and eosin. The PMN chemotactic response was determined by the distance to the leading front and the number of cells that migrated to the front. The distance to the leading front was determined at 400× magnification by the distance the majority of the cells migrated through the filter. The results were expressed as the average number of cells per high powered field at the leading (migratory) front (PMN/HPF). In this assay, 0.5% caffeine was used as a positive control. A negative control, with no anti-chemotactic agent, was also used. The results, shown in Table 4, are the percent reduction in chemotactic activity compared to the negative control.

[2] = test system: IL-1β mediated adhesion of neutrophils; test: Inhibition of IL-1β mediated adhesion of neutrophils (PMN) to human dermal microvascular endothelial cells; assay type: cell-based
Procedure: Three samples identical to those in example 4 were tested for their ability to inhibit endothelial adhesion of neutrophils by interfering with the effects of IL-1β. These samples were tested at final concentrations of 0.1% and 1% (w/v). Neutrophil adhesion was inhibited dose dependently with all samples tested. Adhesion of PMN to human dermal microvascular cells is a required step in the recruitment of leukocytes into the site of infection or irritation and was modeled for this assay in the following manner. […] The PMN rich fraction was removed and RBC were lysed with hypotonic saline. The PMN were washed twice with Hank's balanced salt solution (HBSS) and then resuspended in 5.0 ml HBSS with ions supplemented with 0.4% bovine serum albumin (Sigma). The concentration of cells was adjusted to 10×106 PMN/ml. Collected PMNs were greater than 95% pure and 98% viable as assessed by the trypan blue exclusion assay. […] In preliminary experiments the optimum concentrations of stimulatory agents (IL-1β, 10 U/ml and TPA, 5 ng/ml) were determined. […] After 30-45 min, the wells were read in an ELISA reader (Bio-Tek Instruments Inc, Winooslei, Vt., USA) at 570 nm. The level of adherence was given as the mean optical density (OD) reading at an OD570 for wells containing endothelial cells plus PMN minus the mean OD570 of wells containing endothelial cells alone.

Cn1c(=O)c2c(ncn2C)n(C)c1=O [caffeine]
Percent reduction in chemotactic activity compared to the negative control ([1]; Example 2, 0.5% (w/v), 0.125 nM LTB4): 96%
Percent reduction in chemotactic activity compared to negative control ([1]; Example 4, 0.1% (w/v), 0.125 nM LTB4): 93%
Percent reduction in chemotactic activity compared to negative control ([1]; Example 6, concentration 0.5%): 94%
Percent reduction in chemotactic activity compared to negative control ([1]; Example 7, positive control at 0.5% concentration): 97%
Percent reduction in adhesion activity compared to negative control ([2]; Example 5, 1.0% (w/v), IL-1β 10 U/ml): 64%
Percent reduction in adhesion activity compared to negative control ([2]; Example 8, positive control at 1.0% concentration): 47%
